What was measured:
human TLR7 = target: T1, human TLR7 (Homo sapiens, UniProt Q9NYK1); assay: TLR7 inhibition reporter assay (HEK-Blue SEAP); assay type: cell-based; conditions: HEK-Blue cells overexpressing human TLR7, gardiquimod 7.5 μM, 22 hour incubation
T1 construct: host or cells: HEK-Blue cells
T1 sequence (Q9NYK1 27-1049): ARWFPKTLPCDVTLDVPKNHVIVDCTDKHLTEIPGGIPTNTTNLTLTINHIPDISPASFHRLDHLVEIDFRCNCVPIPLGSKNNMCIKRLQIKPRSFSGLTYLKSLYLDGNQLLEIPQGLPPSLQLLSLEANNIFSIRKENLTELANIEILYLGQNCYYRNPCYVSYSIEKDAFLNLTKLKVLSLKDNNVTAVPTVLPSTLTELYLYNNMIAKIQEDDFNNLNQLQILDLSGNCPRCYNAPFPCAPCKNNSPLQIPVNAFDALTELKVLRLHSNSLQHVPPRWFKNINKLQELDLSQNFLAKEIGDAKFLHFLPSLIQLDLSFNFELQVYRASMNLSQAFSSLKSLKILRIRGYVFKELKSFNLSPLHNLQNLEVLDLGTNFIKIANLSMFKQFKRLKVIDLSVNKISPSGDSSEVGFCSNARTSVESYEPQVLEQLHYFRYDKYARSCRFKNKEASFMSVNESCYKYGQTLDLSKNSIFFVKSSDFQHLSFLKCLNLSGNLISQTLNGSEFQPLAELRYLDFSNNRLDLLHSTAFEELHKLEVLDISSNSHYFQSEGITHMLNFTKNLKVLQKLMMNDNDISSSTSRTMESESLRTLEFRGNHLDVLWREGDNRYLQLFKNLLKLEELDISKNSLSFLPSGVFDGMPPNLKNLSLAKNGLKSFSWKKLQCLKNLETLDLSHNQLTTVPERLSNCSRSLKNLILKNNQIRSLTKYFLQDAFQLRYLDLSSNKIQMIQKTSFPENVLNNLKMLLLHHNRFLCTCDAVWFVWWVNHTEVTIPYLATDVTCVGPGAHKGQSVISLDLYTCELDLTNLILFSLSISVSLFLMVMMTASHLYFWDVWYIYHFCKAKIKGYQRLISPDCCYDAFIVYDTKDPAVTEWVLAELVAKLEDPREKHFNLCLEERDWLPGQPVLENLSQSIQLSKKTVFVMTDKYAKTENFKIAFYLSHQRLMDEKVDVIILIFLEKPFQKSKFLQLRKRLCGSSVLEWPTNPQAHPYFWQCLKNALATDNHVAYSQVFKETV
How it was run: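 SEAP readout via HEK-Blue Detection medium after 22 h at 37 °C, 5% CO2 defines inhibition, normalized between agonist-plus-DMSO wells and a reference inhibitor. Compound dose range 0.05 nM–50 μM; TLR7 cells at 15,000/well (gardiquimod), TLR8 at 20,000/well (R848).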

human TLR9 = target: T2, human TLR9 (Homo sapiens, UniProt Q9NR96); assay: TLR9 inhibition reporter assay (HEK-Blue SEAP); assay type: cell-based; conditions: HEK-Blue cells overexpressing human TLR9, ODN2006 5 nM, 22 hour incubation
T2 construct: host or cells: HEK-Blue cells
T2 sequence (Q9NR96 26-1032): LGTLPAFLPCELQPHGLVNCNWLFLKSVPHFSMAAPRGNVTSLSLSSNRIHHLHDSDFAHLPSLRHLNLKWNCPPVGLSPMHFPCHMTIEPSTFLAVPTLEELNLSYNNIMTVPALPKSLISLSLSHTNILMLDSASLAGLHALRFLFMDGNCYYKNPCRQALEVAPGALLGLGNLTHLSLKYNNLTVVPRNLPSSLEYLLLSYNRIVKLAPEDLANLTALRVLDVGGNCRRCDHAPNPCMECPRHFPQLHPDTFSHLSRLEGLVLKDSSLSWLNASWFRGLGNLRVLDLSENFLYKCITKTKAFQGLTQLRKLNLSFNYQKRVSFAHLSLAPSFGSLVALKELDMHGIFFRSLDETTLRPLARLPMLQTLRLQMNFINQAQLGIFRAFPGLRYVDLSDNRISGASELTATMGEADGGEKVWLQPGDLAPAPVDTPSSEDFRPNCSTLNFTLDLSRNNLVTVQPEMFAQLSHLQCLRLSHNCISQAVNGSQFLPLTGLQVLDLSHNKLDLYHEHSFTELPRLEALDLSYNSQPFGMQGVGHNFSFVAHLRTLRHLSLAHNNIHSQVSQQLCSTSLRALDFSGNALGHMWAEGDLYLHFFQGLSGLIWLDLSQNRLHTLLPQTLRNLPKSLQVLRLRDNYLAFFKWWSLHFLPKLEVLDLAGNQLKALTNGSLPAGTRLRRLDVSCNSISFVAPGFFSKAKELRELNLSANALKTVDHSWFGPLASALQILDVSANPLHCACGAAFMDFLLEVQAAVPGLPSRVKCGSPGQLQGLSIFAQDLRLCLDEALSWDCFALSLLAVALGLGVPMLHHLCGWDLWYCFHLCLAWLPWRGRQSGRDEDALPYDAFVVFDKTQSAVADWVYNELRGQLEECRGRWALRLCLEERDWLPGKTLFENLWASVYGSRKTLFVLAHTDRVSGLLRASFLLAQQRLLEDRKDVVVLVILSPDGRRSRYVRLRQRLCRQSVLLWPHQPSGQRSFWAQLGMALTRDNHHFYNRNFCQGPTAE
How it was run: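 HEK-Blue cells overexpressing human TLR7, TLR8 or TLR9 carry a SEAP reporter driven by NF-κB/AP-1 sites. Compounds (0.05 nM–50 μM) were preincubated 30 min at room temperature, then cells were stimulated with gardiquimod 7.5 μM (TLR7), R848 15.9 μM (TLR8) or ODN2006 5 nM (TLR9) for 22 h at 37 °C.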

COc1cc(-c2cc3[nH]c(=O)n([C@@H]4CCCN(CC(C)(C)C)C4)c3cc2C(F)(F)F)cn2ncnc12 [Example 116, (R)-5-(8-methoxy-[1,2,4]triazolo[1,5-a]pyridin-6-yl)-1-(1-neopentylpiperidin-3-yl)-6-(trifluoromethyl)-1,3-dihydro-2H-benzo[d]imidazol-2-one]
IC50 (human TLR7): 44.1 nM | IC50 (human TLR9): 34200 nM

CCC(CC)CN1CCC[C@@H](n2c(=O)[nH]c3cc(-c4cc(OC)c5ncnn5c4)c(C(F)(F)F)cc32)C1 [Example 117, (R)-1-(1-(2-ethylbutyl)piperidin-3-yl)-5-(8-methoxy-[1,2,4]triazolo[1,5-a]pyridin-6-yl)-6-(trifluoromethyl)-1,3-dihydro-2H-benzo[d]imidazol-2-one]
IC50 (human TLR7): 64.4 nM | IC50 (human TLR9): 11800 nM

COCCN1CCC[C@@H](n2c(=O)[nH]c3cc(-c4cc(OC)c5ncnn5c4)c(C(F)(F)F)cc32)C1 [Example 118, (R)-5-(8-methoxy-[1,2,4]triazolo[1,5-a]pyridin-6-yl)-1-(1-(2-methoxyethyl)piperidin-3-yl)-6-(trifluoromethyl)-1,3-dihydro-2H-benzo[d]imidazol-2-one]
IC50 (human TLR7): 26.5 nM | IC50 (human TLR9): 18100 nM

COc1cc(-c2cc3[nH]c(=O)n([C@H]4CCCN(C)C4)c3cc2C(C)C)cn2ncnc12 [Example 119, (S)-6-isopropyl-5-(8-methoxy-[1,2,4]triazolo[1,5-a]pyridin-6-yl)-1-(1-methylpiperidin-3-yl)-1,3-dihydro-2H-benzo[d]imidazol-2-one]
IC50 (human TLR7): 31.8 nM | IC50 (human TLR9): 26300 nM

COc1cc(-c2cc3[nH]c(=O)n([C@H]4CCCN(C(C)C)C4)c3cc2C(C)C)cn2ncnc12 [Example 120, (S)-6-isopropyl-1-(1-isopropylpiperidin-3-yl)-5-(8-methoxy-[1,2,4]triazolo[1,5-a]pyridin-6-yl)-1,3-dihydro-2H-benzo[d]imidazol-2-one]
IC50 (human TLR7): 0.64 nM | IC50 (human TLR9): 1940 nM

CCCN1CCC[C@H](n2c(=O)[nH]c3cc(-c4cc(OC)c5ncnn5c4)c(C(C)C)cc32)C1 [Example 121, (S)-6-isopropyl-5-(8-methoxy-[1,2,4]triazolo[1,5-a]pyridin-6-yl)-1-(1-propylpiperidin-3-yl)-1,3-dihydro-2H-benzo[d]imidazol-2-one]
IC50 (human TLR7): 28.6 nM | IC50 (human TLR9): 13600 nM

COc1cc(-c2cc3[nH]c(=O)n([C@H]4CCCN(C5CCC5)C4)c3cc2C(C)C)cn2ncnc12 [Example 122, (S)-1-(1-cyclobutylpiperidin-3-yl)-6-isopropyl-5-(8-methoxy-[1,2,4]triazolo[1,5-a]pyridin-6-yl)-1,3-dihydro-2H-benzo[d]imidazol-2-one]
IC50 (human TLR7): 15.1 nM | IC50 (human TLR9): 12700 nM

COc1cc(-c2cc3[nH]c(=O)n([C@H]4CCCN(C5COC5)C4)c3cc2C(C)C)cn2ncnc12 [Example 123, (S)-6-isopropyl-5-(8-methoxy-[1,2,4]triazolo[1,5-a]pyridin-6-yl)-1-(1-(oxetan-3-yl)piperidin-3-yl)-1,3-dihydro-2H-benzo[d]imidazol-2-one]
IC50 (human TLR7): 125 nM | IC50 (human TLR9): > 50000 nM

COc1cc(-c2cc3[nH]c(=O)n([C@H]4CCCN(C5CCOCC5)C4)c3cc2C(C)C)cn2ncnc12 [Example 124, (S)-6-isopropyl-5-(8-methoxy-[1,2,4]triazolo[1,5-a]pyridin-6-yl)-1-(1-(tetrahydro-2H-pyran-4-yl)piperidin-3-yl)-1,3-dihydro-2H-benzo[d]imidazol-2-one]
IC50 (human TLR7): 63.8 nM | IC50 (human TLR9): 20800 nM

COc1cc(-c2cc3[nH]c(=O)n([C@H]4CCCN(CC5CCOCC5)C4)c3cc2C(C)C)cn2ncnc12 [Example 125, (S)-6-isopropyl-5-(8-methoxy-[1,2,4]triazolo[1,5-a]pyridin-6-yl)-1-(1-((tetrahydro-2H-pyran-4-yl)methyl)piperidin-3-yl)-1,3-dihydro-2H-benzo[d]imidazol-2-one]
IC50 (human TLR7): 34.1 nM | IC50 (human TLR9): 7720 nM

COc1cc(-c2cc3[nH]c(=O)n([C@H]4CCCN(CC5CCOC5)C4)c3cc2C(C)C)cn2ncnc12 (stereo partly drawn) [Example 126, 6-isopropyl-5-(8-methoxy-[1,2,4]triazolo[1,5-a]pyridin-6-yl)-1-((3S)-1-((tetrahydrofuran-3-yl)methyl)piperidin-3-yl)-1,3-dihydro-2H-benzo[d]imidazol-2-one]
IC50 (human TLR7): 81.8 nM | IC50 (human TLR9): 27800 nM

COc1cc(-c2cc3[nH]c(=O)n([C@H]4CCCN(CC5CC5)C4)c3cc2C(C)C)cn2ncnc12 [Example 127, (S)-1-(1-(cyclopropylmethyl)piperidin-3-yl)-6-isopropyl-5-(8-methoxy-[1,2,4]triazolo[1,5-a]pyridin-6-yl)-1,3-dihydro-2H-benzo[d]imidazol-2-one]
IC50 (human TLR7): 14.3 nM | IC50 (human TLR9): 15600 nM

COc1cc(-c2cc3[nH]c(=O)n([C@H]4CCCN(CC(C)C)C4)c3cc2C(C)C)cn2ncnc12 [Example 129, (S)-1-(1-isobutylpiperidin-3-yl)-6-isopropyl-5-(8-methoxy-[1,2,4]triazolo[1,5-a]pyridin-6-yl)-1,3-dihydro-2H-benzo[d]imidazol-2-one]
IC50 (human TLR7): 12.8 nM | IC50 (human TLR9): 3690 nM

CCC(CC)CN1CCC[C@H](n2c(=O)[nH]c3cc(-c4cc(OC)c5ncnn5c4)c(C(C)C)cc32)C1 [Example 130, (S)-1-(1-(2-ethylbutyl)piperidin-3-yl)-6-isopropyl-5-(8-methoxy-[1,2,4]triazolo[1,5-a]pyridin-6-yl)-1,3-dihydro-2H-benzo[d]imidazol-2-one]
IC50 (human TLR7): 31.1 nM | IC50 (human TLR9): 9610 nM

COc1cc(-c2cc3[nH]c(=O)n([C@H]4CCCN(CCC(C)C)C4)c3cc2C(C)C)cn2ncnc12 [Example 132, (S)-1-(1-isopentylpiperidin-3-yl)-6-isopropyl-5-(8-methoxy-[1,2,4]triazolo[1,5-a]pyridin-6-yl)-1,3-dihydro-2H-benzo[d]imidazol-2-one]
IC50 (human TLR7): 18.3 nM | IC50 (human TLR9): 11000 nM

COc1cc(-c2cc3[nH]c(=O)n([C@H]4CCCN(CC5CCC5)C4)c3cc2C(C)C)cn2ncnc12 [Example 133, (S)-1-(1-(cyclobutylmethyl)piperidin-3-yl)-6-isopropyl-5-(8-methoxy-[1,2,4]triazolo[1,5-a]pyridin-6-yl)-1,3-dihydro-2H-benzo[d]imidazol-2-one]
IC50 (human TLR7): 17.3 nM | IC50 (human TLR9): 7140 nM

CCCN1CCC[C@@H](n2c(=O)[nH]c3cc(-c4cc(OC)c5ncnn5c4)c(C(C)C)cc32)C1 [Example 134, (R)-6-isopropyl-5-(8-methoxy-[1,2,4]triazolo[1,5-a]pyridin-6-yl)-1-(1-propylpiperidin-3-yl)-1,3-dihydro-2H-benzo[d]imidazol-2-one]
IC50 (human TLR7): 1.98 nM | IC50 (human TLR9): 9330 nM

— patent US12187723B2 (BRISTOL-MYERS SQUIBB COMPANY, priority 2019, dated 2025)
